# Reference: US11034674B2, “Methods of treating inflammation or neuropathic pain” (H. Lundbeck A/S, priority 2015, dated 2021)
# Structures can show the parent of a compound that is named as a salt. Where two headings read alike, the source gives them in different places.
# Experiments:
# [1] = Phase 1 single- and multiple-dose study: plasma pharmacokinetics; format: in vivo; conditions: human, po, fasted; for AUC(0-inf): read-out: AUCinf (mean); for half-life: read-out: T1/2 (median) (converted)
# Description: (§1) General Design and Methodology: The purpose of this study is to assess the initial safety, tolerability, pharmacokinetics, and pharmacodynamics of Compound 1 (administered as Capsules of the hydrochloride salt of Compound 1) in healthy adults. […] Data from this study is used to select doses and dose regimens for subsequent clinical studies.
# There is a minimum 72-hour period between administration of study drug in Panels A and B. In addition, there is a minimum 2-week washout between Panel B Period 2 and Panel A Period 3 in order to evaluate available preliminary pharmacokinetic data along with safety and tolerability data from the preceding doses before proceeding with dosing in Periods 3 and 4. All doses are administered orally, together with approximately 240 mL of water. Water is otherwise restricted from 1 hour prior to, and for 1 hour after administration of study drug. In each treatment period, with the exception of Panel A Period 4 (food effect treatment period); study drug is administered after an overnight fast (for approximately 8 hours).
# The allocation schedule for Periods 2 and 4 (fasted versus fed) are the same such that the same subjects receive active drug or matching placebo in the respective treatment periods.
# PK: Descriptive statistics are provided by treatment (Part 1) and by treatment and day (Part 2). Minimum, median, maximum and CV are provided for all PK parameters. Arithmetic mean and standard deviation based on the raw scale are provided for AUC and Cmax. In addition, the percent CV of AUC and Cmax is also provided and calculated according to the following formula: 100×sqrt(exp(s2)−1), where s2 is the observed variance on the natural log-scale. Harmonic mean and jack-knife SD is provided for half-life. Time to steady-state, and evaluation of PK linearity are evaluated in an exploratory fashion.
# MGLL = MGLL (Canis lupus familiaris, UniProt A0A8I3PC77); assay: biochemical
# Sequence of MGLL (A0A8I3PC77 1-304): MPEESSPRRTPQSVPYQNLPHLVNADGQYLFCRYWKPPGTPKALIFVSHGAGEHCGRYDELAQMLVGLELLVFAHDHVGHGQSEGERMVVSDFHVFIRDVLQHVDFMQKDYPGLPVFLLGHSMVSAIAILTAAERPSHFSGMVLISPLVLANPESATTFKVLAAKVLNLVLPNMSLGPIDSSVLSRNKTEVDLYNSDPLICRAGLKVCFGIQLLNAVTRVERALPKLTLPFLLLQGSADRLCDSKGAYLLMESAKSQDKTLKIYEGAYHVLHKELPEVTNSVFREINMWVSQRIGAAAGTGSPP
# Method: In vitro potency was determined using activity-based protein profiling (ABPP) which is a functional proteomic technology that uses chemical probes to covalently modify enzyme active sites in an activity-dependent manner (e.g., only catalytically active enzymes will react and become labeled with the ABPP probe). Identification of the proteins that were labeled by the probes was accomplished using polyacrylamide gel electrophoresis or mass spectrometry.
# formalin-challenged rats = assay: Rat formalin paw test
# 2-AG [2] = assay: 2-AG and anandamide concentrations in rat tissues and plasma after oral dose; format: in vivo
# Description: MGLL target engagement inhibits the hydrolysis of 2-AG, elevating tissue 2-AG concentrations, which can be measured in rodent tissues and fluids by MS. Elevation of 2-AG results in enhanced cannabinoid receptor signaling and physiological responses.
# Inhibition of MGLL causes accumulation of 2-AG in the rodent brain and periphery.
# 2-AG [3] = assay: Rat plasma 2-AG levels after single PO dose (LC-MS/MS); format: in vivo; conditions: single PO doses up to 30 mg/kg, 4 h
# Method: […]. MGLL activity was assessed by ABPP analysis in PBMC lysates and plasma 2-AG concentrations were measured by liquid chromatography tandem mass spectrometry (LC-MS/MS).
# in vivo = conditions: rat, po, 0.5 mg/kg
# 2-AG [4] = assay: Mouse brain 2-AG concentrations after PO dose; conditions: single-dose PO
# [5] = Phase 1 single- and multiple-dose study: safety and tolerability; format: in vivo, human
# Method: as §1
# In Part 2, Panels are dosed sequentially.
# [6] = 100 mg, single oral dose 100 mg, Panel A, Period 3 (A3)
# [7] = 100 mg, single oral dose 100 mg, Panel B, Period 4 (B4)
# [8] = 200 mg, single oral dose 200 mg
# [9] = Panel C (10 mg QD×14 days) or Panel D (20 mg QD×14 days)
smiles,measurement,setting,value
"O=C(OC(C(F)(F)F)C(F)(F)F)N1CCN(Cc2ccc(C(F)(F)F)cc2N2CCCC2)CC1 [Compound 1, 1,1,1,3,3,3-hexafluoropropan-2-yl 4-(2-(pyrrolidin-1-yl)-4-(trifluoromethyl)benzyl)piperazine-1-carboxylate]",Cmax,"[1]; 2 mg, single oral dose 2 mg",2.9 ng/mL
same,Tmax,"[1]; 2 mg, single oral dose 2 mg",1.5 h
same,AUC(0-inf),"[1]; 2 mg, single oral dose 2 mg",15.9 ng·h/mL
same,half-life,"[1]; 2 mg, single oral dose 2 mg",1.51 h
same,Cmax,"[1]; 6 mg, single oral dose 6 mg",10.2 ng/mL
same,Tmax,"[1]; 6 mg, single oral dose 6 mg",1.67 h
same,AUC(0-inf),"[1]; 6 mg, single oral dose 6 mg",47 ng·h/mL
same,half-life,"[1]; 6 mg, single oral dose 6 mg",2.23 h
same,Cmax,"[1]; 18 mg, single oral dose 18 mg",23.5 ng/mL
same,Tmax,"[1]; 18 mg, single oral dose 18 mg",2 h
same,AUC(0-inf),"[1]; 18 mg, single oral dose 18 mg",109 ng·h/mL
same,half-life,"[1]; 18 mg, single oral dose 18 mg",3.02 h
same,Cmax,"[1]; 50 mg, single oral dose 50 mg",59.8 ng/mL
same,Tmax,"[1]; 50 mg, single oral dose 50 mg",1.8 h
same,AUC(0-inf),"[1]; 50 mg, single oral dose 50 mg",296 ng·h/mL
same,half-life,"[1]; 50 mg, single oral dose 50 mg",3.44 h
same,Cmax,[1]; [6],45.7 ng/mL
same,Tmax,[1]; [6],3.17 h
same,AUC(0-inf),[1]; [6],289 ng·h/mL
same,half-life,[1]; [6],5.82 h
same,Cmax,[1]; [7],76 ng/mL
same,Tmax,[1]; [7],1.83 h
same,AUC(0-inf),[1]; [7],512 ng·h/mL
same,half-life,[1]; [7],3.76 h
same,Cmax,[1]; [8],109 ng/mL
same,Tmax,[1]; [8],3 h
same,AUC(0-inf),[1]; [8],766 ng·h/mL
same,half-life,[1]; [8],3.61 h
same,IC50,"MGLL; MGLL IC50, Dog Prefrontal Cortex, 30 min pre-incubation at 37° C., mean ± SEM, n = 3",12 ± 2 nM
same,IC50,"MGLL; MGLL IC50, dog MGLL, summary statement for all species",< 30 nM
same,effect of single and repeated administration on pain behaviors,"formalin-challenged rats; 1 mg/kg, single vs 5 days QD, n=10, repeat dose group not statistically different from vehicle",numerically reduced pain behaviors to a similar extent
same,ED50 for exposure associated with efficacy,formalin-challenged rats; rat formalin nocifensive model,0.4 µM·h
same,overt behavioral or locomotor perturbations,"formalin-challenged rats; rats, at the ED50 dose and at oral doses 20-fold higher",not apparent
same,"Phase 2 ED50, paw licking behavior","formalin-challenged rats; single dose PO, 4 hours pre-test, n=10",0.5 mg/kg
same,effect on nociception in formalin-challenged rats,"formalin-challenged rats; single dose up to 10 mg/kg PO, 4 hours pre-test, early (Phase 1) and delayed (Phase 2) phases",dose-dependent antinociceptive effects
same,elevation in brain 2-AG concentrations at the Phase 2 ED50,"2-AG [2]; rat formalin model, 0.5 mg/kg PO",approximately 3 fold
same,brain levels of the endocannabinoid anandamide,"2-AG [2]; rat, single oral doses",not elevated
same,increase of 2-AG concentration in plasma,"2-AG [2]; rat, single oral doses",7 fold
same,ED50,"2-AG [2]; rat, single oral doses up to 30 mg/kg, 4 hours, read-out: ED50 for increase of brain 2-AG concentrations (average)",1.3 mg/kg
same,increase of plasma 2-AG levels,2-AG [3],up to 7 fold
same,concentration at 4 h,in vivo; blood,7 nM
same,concentration at 4 h,in vivo; brain,5 nM
same,increase of brain 2-AG concentrations,2-AG [4],up to 30 fold
"O=C(OC(C(F)(F)F)C(F)(F)F)N1CCN(Cc2ccc(C(F)(F)F)cc2N2CCCC2)CC1 [Compound 1 HCl, 1,1,1,3,3,3-hexafluoropropan-2-yl 4-(2-(pyrrolidin-1-yl)-4-(trifluoromethyl)benzyl)piperazine-1-carboxylate]",adverse events leading to discontinuation,[5]; [9],no adverse events leading to the discontinuation of any subjects
same,"changes in vital signs, laboratory test values, or ECGs",[5]; [9],no clinically significant changes
same,"vital sign, safety laboratory, or electrocardiographic findings","[5]; healthy male subjects, fasting state, single oral doses up to 200 mg","not associated with any vital sign, safety laboratory, or electrocardiographic findings of note"
